“And” between values parts separate entries of the source, which are not always exact repeats. Equal entries are not always repeated.
What was measured:
full-length ALPK1 [1] = target: T1, full-length ALPK1 (Homo sapiens, UniProt Q96QP1); test: Thermal shift assay (TSA); format: binding; conditions: for increase in melting temperature (Tm): pilot TSA screen / assay validation; for TSA Tm Increase: compound at 10 μM
T1 construct: recombinant full-length ALPK1 kinase purified from Sf9 cells; 3xFlag (C); made in house; host or cells: Sf9 insect cells (baculovirus, pFAST-BAC)
T1 sequence (Q96QP1 whole entry): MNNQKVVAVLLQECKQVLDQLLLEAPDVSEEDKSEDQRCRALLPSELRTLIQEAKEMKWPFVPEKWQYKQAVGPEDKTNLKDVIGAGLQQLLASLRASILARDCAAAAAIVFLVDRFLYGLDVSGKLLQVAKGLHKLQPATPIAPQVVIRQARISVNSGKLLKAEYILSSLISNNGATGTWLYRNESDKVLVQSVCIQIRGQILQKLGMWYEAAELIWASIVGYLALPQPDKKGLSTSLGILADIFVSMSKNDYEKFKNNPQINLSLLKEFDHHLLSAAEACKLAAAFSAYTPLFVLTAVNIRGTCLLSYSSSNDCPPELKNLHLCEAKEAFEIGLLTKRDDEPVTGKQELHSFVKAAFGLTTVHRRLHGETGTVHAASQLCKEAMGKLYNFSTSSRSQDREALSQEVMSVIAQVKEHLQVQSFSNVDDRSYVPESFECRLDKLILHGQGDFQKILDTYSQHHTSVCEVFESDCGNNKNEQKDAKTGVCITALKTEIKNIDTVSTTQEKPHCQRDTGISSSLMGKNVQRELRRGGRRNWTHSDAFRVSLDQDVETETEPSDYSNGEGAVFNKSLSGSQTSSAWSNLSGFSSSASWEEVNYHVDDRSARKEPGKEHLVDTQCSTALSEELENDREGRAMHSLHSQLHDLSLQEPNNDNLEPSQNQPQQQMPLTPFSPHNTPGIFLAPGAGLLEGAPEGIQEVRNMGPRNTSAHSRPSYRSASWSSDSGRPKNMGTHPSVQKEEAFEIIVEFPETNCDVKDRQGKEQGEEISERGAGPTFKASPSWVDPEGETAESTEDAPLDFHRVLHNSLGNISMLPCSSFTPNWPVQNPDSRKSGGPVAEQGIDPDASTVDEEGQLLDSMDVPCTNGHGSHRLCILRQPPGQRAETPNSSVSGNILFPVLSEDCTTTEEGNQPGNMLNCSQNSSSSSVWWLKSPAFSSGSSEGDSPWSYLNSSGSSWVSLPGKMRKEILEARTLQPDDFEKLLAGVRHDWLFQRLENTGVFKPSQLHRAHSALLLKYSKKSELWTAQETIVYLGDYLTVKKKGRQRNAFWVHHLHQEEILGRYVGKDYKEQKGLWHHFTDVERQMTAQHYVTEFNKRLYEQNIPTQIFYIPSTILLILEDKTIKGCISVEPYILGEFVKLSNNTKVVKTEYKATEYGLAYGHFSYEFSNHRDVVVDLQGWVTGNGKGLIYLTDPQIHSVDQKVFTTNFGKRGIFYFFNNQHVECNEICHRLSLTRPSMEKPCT
Procedure: A small molecule library containing ~160,000 compounds (HTS Diversity V2) was prepared by WuXi AppTec (Shanghai, China) in 384 well thin-wall qPCR plates, with 20 nL of 10 mM compound preparations in each well. On each screening plate, 2 columns of wells were loaded with 20 nL of pure DMSO to leave spaces for negative controls (no compounds) and the positive control (AS-252424). […] The mixture was spun down at 1000 rpm for 1 min, then immediately applied to a protein melting reaction on a Roche LightCycler® 480 II Real-time PCR system, heating the mixture from 30 °C to 50 °C at the ramp rate of 0.02 °C/s while continuously acquiring the fluorescence signal. The melting temperature (Tm) of the ALPK1 protein with or without each compound was calculated using the Protein Thermal Shift™ Analysis Desktop Software v1.2 (Thermo Fisher Scientific). For positive control wells, 40 μM AS-252424 in 5 μl compound solvent was added manually and used as a positive control in the thermal shift screening.

ALPK1 [2] = target: T2, ALPK1 (Homo sapiens, UniProt Q96QP1); test: Western blotting-based in vitro kinase assay; format: biochemical; conditions: 20 µM
T2 sequence (Q96QP1 whole entry): as above
Procedure: Compounds were tested at a single final concentration of 20 μM in an in vitro kinase assay including 30 nM recombinant ALPK1 (purified from 293-F cells stimulated with 4% s.t. lysate 4 h before cell lysis) and 1.6 μM His-tagged TIFA in a 20 µl volume. […] An in vitro kinase reaction was conducted at 27 °C for 40 min in the following buffer: 20 mM HEPES pH 7.0, 1 mM TCEP, 10 mM MgCl2, 0.1 mM Na3VO4, 0.6 μM BSA, 5% DMSO and 25 μM ATP. […] After these in vitro kinase reactions, the kinase-substrate mix was fractionated by electrophoresis on denaturing SDS-PAGE gels and transferred to Immobilon-P PVDF membranes (Millipore, MA, USA). Membranes were blocked with 5% milk in TBS with 0.1% Triton-X100. Phosphorylated TIFA were detected by incubating the membrane with an anti-phospho-threonine (#9386, Cell Signaling Technology, Danvers, MA, USA) antibody. […]
compounds used in the Western blotting to measure the ability of compounds to inhibit the ALPK1-mediated phosphorylation of TIFA. (b) Example of the biochemical approach to validate hits from the thermal shift assay screen. ALPK1 binding compounds were tested in triplicate in an in vitro kinase assay at a final concentration of 20 µM, and the inhibitory effect was evaluated by comparing the phosphorylated TIFA level to that for the no compound control after the kinase reaction by Western blotting.
Phosphorylated TIFA was detected using an anti-phospho-theronine antibody. ALPK1 binders fell into three categories: inhibitors (e.g. WXHTS0017849, WXHTS WXHTS0037341), activators (e.g.
WXHTS0086594), and those with no effect (e.g. WXHTS0035788). […]

full-length ALPK1 [3] = target: T1, full-length ALPK1; test: Surface plasmon resonance (SPR); format: binding; conditions: with 500 nM ADP-L-heptose
Procedure: SPR assays were conducted on a Biacore 8 K (Cytiva). […] For analyte testing, flow rates were maintained at 30 µL/min. […] The data collection rate was 10 Hz, and all data were double referenced and solvent corrected. Analysis was performed using Biacore Insight Evaluation software version 5. The 1:1 kinetic binding affinity models were used to fit the data, and all parameters were fitted globally.

ALPK1 [4] = target: T2, ALPK1; test: biochemical
ROSAH patients = ROSAH patients ref 3; cited from earlier work
[5] = test system: HEK-293 cells transfected with GFP-TIFA; test: DF-006-induced TIFAsome formation; conditions: 1 μM DF-006 alone

| effect on ALPK1-mediated TIFA phosphorylation (ALPK1 [2]) | Kd (full-length ALPK1 [3]) [µM] | TSA Tm Increase (full-length ALPK1 [1]) [°C] | Molecule | further results |
| --- | --- | --- | --- | --- |
|  |  |  | Nc1ncnc2c1ncn2[C@@H]1O[C@H](COP(=O)(O)OP(=O)(O)O)[C@@H](O)[C@H]1O [ADP] | increase in melting temperature (Tm) (full-length ALPK1 [1]): 1.4 °C |
|  | 265 | 3.4 | Brc1c(Br)c(Br)c2n[nH]nc2c1Br [Tbb] |  |
| inhibit ALPK1 activity | 10 | 3.6 | CC1=NN(c2ccc(C)c(C)c2)C(=O)/C1=N\Nc1cccc(-c2cccc(C(=O)O)c2)c1O [Eltrombopag] | IC50 (ALPK1 [4]): 7.6 µM |
|  | 7 | 1.8 | O=C(O)c1cccnc1Nc1cccc(C(F)(F)F)c1 [Niflumic acid] |  |
| inhibitors |  |  | Nc1nc(C2(c3ccccc3)CCCC2)cs1 [WXHTS0037341] |  |
|  | 281 | 2.0 | O=C(O)c1cc(/N=N/c2ccc(S(=O)(=O)Nc3ccccn3)cc2)ccc1O [Sulfasalazine] |  |
|  |  |  | tocilizumab: anti-IL-6 drug given off-label to ROSAH patients | intraocular inflammation (ROSAH patients): improved intraocular inflammation (two of two patients) |
|  |  |  | CC(=O)OCC(F)C1OC(OP(=O)(O)OP(O)(=S)OCC2OC(n3cnc4c(N)ncnc43)C(O)C2O)C(OC(C)=O)C(OC(C)=O)C1OC(C)=O [DF-006, D-glycero-D-manno-6-fluoro-2,3,4,7-Ac-heptose-1β-S-ADP, reference compound] | Cells with TIFAsomes /GFP positive cells (%) [5]: 50.51% and 61.9% and 51.29% and 50.95% and 60.98% |
| inhibitors |  |  | Nc1c(-c2ccncc2)sc2nc(-c3cccs3)ccc12 [WXHTS0017849] |  |
|  | 1 | 3.4 | O=C1NC(=O)/C(=C/c2ccc(-c3ccc(F)cc3O)o2)S1 [AS-252424] | increase in melting temperature (Tm) (full-length ALPK1 [1]): 3.4 °C |
| activators |  |  | Cc1ccc(NC(=O)NCC(O)c2ccc(F)cc2F)cc1Cl (stereo not drawn) [WXHTS0086594] |  |
| inhibit ALPK1 activity | 97 | 2.2 | Cc1ccc(C(=O)c2cc(O)c(O)c([N+](=O)[O-])c2)cc1 [Tolcapone] |  |

| Molecule | effect on ALPK1-mediated TIFA phosphorylation (ALPK1 [2]) | Kd (full-length ALPK1 [3]) [µM] | TSA Tm Increase (full-length ALPK1 [1]) [°C] | further results |
| --- | --- | --- | --- | --- |
| CC(=O)Oc1ccccc1-c1cccc(Cn2cccc(C(=O)Nc3ccc(-c4ccccc4)cc3)c2=O)c1 [WXHTS0035788] | no effect |  |  |  |
| CO[C@@H]1[C@@H](OC(N)=O)[C@@H](O)[C@H](Oc2ccc3c(O)c(NC(=O)c4ccc(O)c(CC=C(C)C)c4)c(=O)oc3c2C)OC1(C)C [Novobiocin] |  |  | 1.4 |  |

From PMC12420824, “Discovery of a selective alpha-kinase 1 inhibitor for the rare genetic disease ROSAH syndrome” (Nature Communications, 2025)
